The source of these data is paper PMC5225203, “Multiparameter toxicity assessment of novel DOPO-derived organophosphorus flame retardants” (Archives of Toxicology, 2016).

The test system of data set [1] is differentiated LUHMES cells. Type of data set: cell-based, human. Particulars: positive control. The procedure:
Suppl. Fig. 10. Migration of mitochondria in neurites. Mitochondrial migration was detected in fully differentiated (day 6 of differentiation, DoD6) mixed LUHMES cultures consisting of 3% eGFP/mito-tRFP-overexpressing LUHMES in 97% unlabeled LUHMES in order to allow tracking of mitochondria in single neurites in an environment of normal LUHMES cell density (Schildknecht et al. 2013, ALTEX 30(4):427-444). Single cell time lapse imaging was performed for a period of 90 s in intervals of 3 s with a Zeiss LSM 780 inverted fluorescence microscope YOKOGAWA CSU-XI spinning disk system using an EVOLVE camera (Carl Zeiss Group, Oberkochen, Germany) equipped with a 5% CO2 /37°C controlled chamber and a 40 x 1.3 NA oil objective. For image analysis, kymographs (graphical representation of spatial position over time) based on the data obtained from single cell time lapse experiments were created using ImageJ Software (NIH, Bethesda, USA). The neurite was manually defined by the segmented line tool. To calculate mitochondrial velocity, diagonal lines were drawn for each moving mitochondrium in the kymograph and analysed by calculating the slope with the macro-plugin Kymo Line ROI, generated by Felix Schöneberger, Bioimaging Center (BIC), University of Konstanz, Germany.
(1 picture or pasted object on this page, not shown here)

The subject of data set [2] is ARE-dependent luciferase expression in KeratinoSens cells. In words: KeratinoSens skin sensitization assay. It counts as cell-based. Particulars: positive control. The procedure:
Generation of the stable KeratinoSens™ cell line was previously described in detail (Emter et al. [2010]). KeratinoSens™ cells were maintained in DMEM containing glutamax (Gibco/Invitrogen), 9 % FCS, and 0.5 mg/mL G418. For the experiments, KeratinoSens™ cells were seeded onto 96-well plates at a density of 10,000 cells per well in 125 µL medium without G418. After 24 h, the medium was replaced with 200 µL DMEM containing 1 % FCS and the test compounds. After a 2-day incubation period at 37 °C in an atmosphere containing 5 % CO2, the cells were washed once with PBS and a resazurin reduction assay (PrestoBlue®) was carried out in order to compare the viability of the differently treated groups. Fluorescence intensity was measured at 550 nmex and 590 nmem. After another washing step with PBS, cell lysis was performed using 20 µL/well passive lysis buffer (Promega) for 20 min at room temperature. Luciferase activity was measured by applying 50 µL luciferase substrate automatically to each well and detecting the resulting luminescence. Compounds were considered as skin sensitizers when a statistically significant induction of luciferase activity above a defined threshold of ≥1.5 in the absence of impaired cell viability was observed (Emter et al. [2010]; Natsch et al. [2011]).

For data set [3], the system named is 3D epidermal in vitro model generated from primary human keratinocytes. The data set can be described thus: 3D epidermal in vitro model. It counts as cell-based. Particulars: positive control, 5 %, 15 min. The protocol: Human primary keratinocytes (PR3D-HPEK-50, CELLnTEC, Switzerland) were grown in flasks in proliferation medium (CNT-PR, CELLnTEC) until subconfluency was reached, after which the cells were seeded into transwell inserts containing polycarbonate membranes with a pore size of 0.4 µm at a density of 3.3 × 10^5 cells/cm^2 and grown for 3 days in CNT-PR until confluency was reached. Differentiation was initiated by the addition of 3D barrier medium (CNT-PR-3D, CELLnTEC) for 18 h to allow development of cell-to-cell adhesion structures. 3D growth and differentiation were induced by complete removal of medium from the upper transwell compartment and replacement of the CNT-PR-3D differentiation medium in the lower compartment. Cells were allowed to differentiate for 11 days with 3 medium changes per week in the lower compartment and direct cell-to-air contact in the top compartment. Flame retardants were suspended at a concentration of 200 mM in PBS containing 5 % DMSO, after which 100 µL of each test compound was applied on top of the epithelial barrier model. […] Cell viability of the epidermal models was assessed by measuring the reduction of resazurin to resorufin (PrestoBlue® Assay). Cell viability values (fluorescence signals) were normalized to the epidermal model thickness. […] Samples were mounted with DPX mounting medium (Sigma-Aldrich) and analyzed by microscopy (Olympus IX 81).

`C[n+]1ccc(-c2ccccc2)cc1` [MPP^+, reference compound]: the “velocity of mitochondrial migration in neurites” value in data set [1] is “significant decline”.
With `CC(=O)C=Cc1ccccc1` [benzylidene acetone, reference compound], the “concentration at which luciferase increase is associated with cell death” value in data set [2] is reported as > 10 µM.
Regarding `CCCCCCCCCCCCOS(=O)(=O)[O-].[Na+]` [SDS, sodium dodecyl sulfate], the “influence on the architecture of the epidermis” value in data set [3] was “complete disintegration of the stratum corneum and substantial cell death in the stratum spinosum”.
